Data reported in the supplement of paper PMC10307832.

Experiments:
Experiment in all cases: relative viability (nuclei count vs DMSO), 5 days (fraction); higher = more cells survive
NCI-H1355 = test system: NCI-H1355
Method in brief: (§1)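 Nuclei were stained with Hoechst during a one-step fixation (final 0.05% Triton X-100, 1% formaldehyde, 1 ug/ml Hoechst) carried out 5 days after dosing, then counted on 4× images. The cells, lung cancer lines in 1536-well plates, had been dosed by pin tool the day after seeding with one drug alone or a fixed anchor-drug dose plus five library-drug doses (not always all listed) in √10 steps. Relative viability is the nuclei count in treated wells divided by that in vehicle wells, and each value is the median of duplicate plates.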

LCLC-97TM1 = test system: LCLC-97TM1
Method in brief: as §1

NCI-H520 = test system: NCI-H520
Method in brief: as §1

NCI-H23 = test system: NCI-H23
Method in brief: as §1

NCI-H1648 = test system: NCI-H1648
Method in brief: as §1

A549 = test system: A549
Method in brief: as §1

NCI-H2347 = test system: NCI-H2347
Method in brief: as §1

LC-2-ad = test system: LC-2-ad
Method in brief: as §1

PC-3 [JPC-3] = test system: PC-3 [JPC-3]
Method in brief: as §1

NCI-H1623 = test system: NCI-H1623
Method in brief: as §1

COCC1(CO)C(=O)C2CCN1CC2 (stereo not given) [PRIMA-1MET] + Nc1ncn([C@H]2C[C@H](O)[C@@H](CO)O2)c(=O)n1 [Decitabine] (partner 2 µM)
relative viability (NCI-H1355; first compound 0.2 µM): 0.366 | relative viability (NCI-H1355; first compound 0.6325 µM): 0.347 | relative viability (NCI-H1355; first compound 2 µM): 0.338 | relative viability (NCI-H1355; first compound 6.325 µM): 0.329 | relative viability (NCI-H1355; first compound 20 µM): 0.323 | relative viability (LCLC-97TM1; first compound 0.2 µM): 0.286 | relative viability (LCLC-97TM1; first compound 0.6325 µM): 0.163 | relative viability (LCLC-97TM1; first compound 2 µM): 0.209 | relative viability (LCLC-97TM1; first compound 6.325 µM): 0.153 | relative viability (LCLC-97TM1; first compound 20 µM): 0.246 | relative viability (NCI-H520; first compound 0.2 µM): 0.506 | relative viability (NCI-H520; first compound 2 µM): 0.413 | relative viability (NCI-H520; first compound 6.325 µM): 0.521 | relative viability (NCI-H520; first compound 20 µM): 0.219 | relative viability (NCI-H23; first compound 0.2 µM): 0.277 | relative viability (NCI-H23; first compound 0.6325 µM): 0.221 | relative viability (NCI-H23; first compound 2 µM): 0.282 | relative viability (NCI-H23; first compound 6.325 µM): 0.293 | relative viability (NCI-H23; first compound 20 µM): 0.162 | relative viability (NCI-H1648; first compound 0.2 µM): 0.433 | relative viability (NCI-H1648; first compound 2 µM): 0.451 | relative viability (NCI-H1648; first compound 20 µM): 0.475 | relative viability (A549; first compound 0.2 µM): 0.284 | relative viability (A549; first compound 2 µM): 0.253 | relative viability (A549; first compound 6.325 µM): 0.25 | relative viability (A549; first compound 20 µM): 0.237 | relative viability (NCI-H2347; first compound 0.2 µM): 0.705 | relative viability (NCI-H2347; first compound 0.6325 µM): 0.549 | relative viability (NCI-H2347; first compound 2 µM): 0.605 | relative viability (NCI-H2347; first compound 6.325 µM): 0.668 | relative viability (NCI-H2347; first compound 20 µM): 0.63 | relative viability (LC-2-ad; first compound 0.2 µM): 0.902 | relative viability (LC-2-ad; first compound 0.6325 µM): 0.607 | relative viability (LC-2-ad; first compound 2 µM): 0.773 | relative viability (LC-2-ad; first compound 6.325 µM): 0.776 | relative viability (LC-2-ad; first compound 20 µM): 0.776 | relative viability (PC-3 [JPC-3]; first compound 0.2 µM): 0.822 | relative viability (PC-3 [JPC-3]; first compound 0.6325 µM): 0.712 | relative viability (PC-3 [JPC-3]; first compound 2 µM): 0.841 | relative viability (PC-3 [JPC-3]; first compound 6.325 µM): 0.84 | relative viability (PC-3 [JPC-3]; first compound 20 µM): 0.802

COCC1(CO)C(=O)C2CCN1CC2 (stereo not given) [PRIMA-1MET] + N=C(N)NC(=N)NCCc1ccccc1 [Phenformin] (partner 250 µM)
relative viability (NCI-H1355; first compound 0.2 µM): 0.443 | relative viability (NCI-H1355; first compound 0.6325 µM): 0.409 | relative viability (NCI-H1355; first compound 2 µM): 0.384 | relative viability (NCI-H1355; first compound 6.325 µM): 0.46 | relative viability (NCI-H1355; first compound 20 µM): 0.421 | relative viability (LCLC-97TM1; first compound 0.2 µM): 0.436 | relative viability (LCLC-97TM1; first compound 0.6325 µM): 0.437 | relative viability (LCLC-97TM1; first compound 2 µM): 0.484 | relative viability (LCLC-97TM1; first compound 6.325 µM): 0.448 | relative viability (LCLC-97TM1; first compound 20 µM): 0.347 | relative viability (NCI-H520; first compound 0.2 µM): 0.605 | relative viability (NCI-H520; first compound 0.6325 µM): 0.501 | relative viability (NCI-H520; first compound 2 µM): 0.314 | relative viability (NCI-H520; first compound 6.325 µM): 0.289 | relative viability (NCI-H520; first compound 20 µM): 0.155 | relative viability (NCI-H23; first compound 0.2 µM): 0.854 | relative viability (NCI-H23; first compound 0.6325 µM): 0.772 | relative viability (NCI-H23; first compound 2 µM): 0.822 | relative viability (NCI-H23; first compound 6.325 µM): 0.842 | relative viability (NCI-H23; first compound 20 µM): 0.561 | relative viability (A549; first compound 0.2 µM): 0.165 | relative viability (A549; first compound 0.6325 µM): 0.173 | relative viability (A549; first compound 2 µM): 0.204 | relative viability (A549; first compound 6.325 µM): 0.148 | relative viability (A549; first compound 20 µM): 0.0121 | relative viability (NCI-H2347; first compound 0.2 µM): 0.265 | relative viability (NCI-H2347; first compound 0.6325 µM): 0.366 | relative viability (NCI-H2347; first compound 2 µM): 0.231 | relative viability (NCI-H2347; first compound 6.325 µM): 0.28 | relative viability (NCI-H2347; first compound 20 µM): 0.387 | relative viability (LC-2-ad; first compound 0.2 µM): 0.548 | relative viability (LC-2-ad; first compound 2 µM): 0.49 | relative viability (LC-2-ad; first compound 6.325 µM): 0.568 | relative viability (LC-2-ad; first compound 20 µM): 0.36 | relative viability (NCI-H1623; first compound 0.2 µM): 0.522 | relative viability (NCI-H1623; first compound 0.6325 µM): 0.603 | relative viability (NCI-H1623; first compound 2 µM): 0.544 | relative viability (NCI-H1623; first compound 6.325 µM): 0.503 | relative viability (NCI-H1623; first compound 20 µM): 0.457 | relative viability (PC-3 [JPC-3]; first compound 0.2 µM): 0.464 | relative viability (PC-3 [JPC-3]; first compound 0.6325 µM): 0.456 | relative viability (PC-3 [JPC-3]; first compound 2 µM): 0.462 | relative viability (PC-3 [JPC-3]; first compound 6.325 µM): 0.477 | relative viability (PC-3 [JPC-3]; first compound 20 µM): 0.466
